This note sets out measurements from the Kinase Knowledgebase extract (Sharma et al. 2016).

The term IC50 denotes the point on the concentration scale where inhibition reaches its midpoint. Low readings indicate higher potency, high ones lower potency.

This assay deals with ROCK2 (human) (UniProt O75116). As to the kind of experiment: Inhibition of ROCK2 Kinase Activity.
ROCK2 (human), sequence (O75116 whole entry, looked up): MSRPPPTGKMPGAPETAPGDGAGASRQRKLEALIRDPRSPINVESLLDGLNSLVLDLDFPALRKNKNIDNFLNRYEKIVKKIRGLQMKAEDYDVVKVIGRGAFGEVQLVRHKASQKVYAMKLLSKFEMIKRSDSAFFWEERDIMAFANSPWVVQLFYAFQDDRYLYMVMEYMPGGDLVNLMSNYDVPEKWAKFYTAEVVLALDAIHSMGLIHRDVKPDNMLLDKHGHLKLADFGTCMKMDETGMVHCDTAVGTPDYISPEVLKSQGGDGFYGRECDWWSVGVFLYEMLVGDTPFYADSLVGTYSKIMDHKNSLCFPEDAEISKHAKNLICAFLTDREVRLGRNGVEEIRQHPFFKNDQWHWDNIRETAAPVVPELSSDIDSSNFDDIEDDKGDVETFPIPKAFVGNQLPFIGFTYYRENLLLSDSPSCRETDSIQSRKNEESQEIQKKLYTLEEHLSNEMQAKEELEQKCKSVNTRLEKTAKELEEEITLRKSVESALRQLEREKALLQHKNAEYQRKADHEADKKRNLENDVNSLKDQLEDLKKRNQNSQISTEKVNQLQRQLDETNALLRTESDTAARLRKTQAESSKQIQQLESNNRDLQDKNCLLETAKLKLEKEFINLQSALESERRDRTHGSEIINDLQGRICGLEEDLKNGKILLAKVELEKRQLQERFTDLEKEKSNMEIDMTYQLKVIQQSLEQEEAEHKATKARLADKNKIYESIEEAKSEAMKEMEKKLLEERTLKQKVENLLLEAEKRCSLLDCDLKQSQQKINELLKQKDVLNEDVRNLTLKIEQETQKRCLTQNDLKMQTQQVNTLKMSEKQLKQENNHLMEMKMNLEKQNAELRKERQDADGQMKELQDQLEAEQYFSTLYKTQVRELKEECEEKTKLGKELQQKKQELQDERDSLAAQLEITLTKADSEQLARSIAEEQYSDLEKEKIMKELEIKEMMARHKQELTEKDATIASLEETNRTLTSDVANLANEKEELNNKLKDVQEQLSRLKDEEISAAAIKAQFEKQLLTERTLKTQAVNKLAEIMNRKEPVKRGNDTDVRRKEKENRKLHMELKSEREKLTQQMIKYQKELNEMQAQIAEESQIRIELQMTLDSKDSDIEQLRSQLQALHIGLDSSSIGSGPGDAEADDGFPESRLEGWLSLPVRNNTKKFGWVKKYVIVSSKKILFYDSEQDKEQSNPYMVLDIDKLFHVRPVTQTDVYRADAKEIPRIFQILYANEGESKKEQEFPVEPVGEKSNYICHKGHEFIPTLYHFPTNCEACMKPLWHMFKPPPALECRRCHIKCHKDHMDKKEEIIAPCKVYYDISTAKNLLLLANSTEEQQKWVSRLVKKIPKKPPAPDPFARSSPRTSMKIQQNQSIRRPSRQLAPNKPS
Regarding `COc1ccccc1CC(=O)N1CCCC1C(N)c1ccc(C(=O)Nc2ccncc2)cc1` (centres undefined), the IC50 is 500 to 5000 nM.

On to `COc1ccc(OC)c(CNC(=O)CC(N)c2ccc(C(=O)Nc3ccncc3)cc2)c1` (centres undefined), for which the IC50 was in the range of 50 to 500 nM.

For `CCSCC(=O)NCC(N)c1ccc(C(=O)Nc2ccncc2)cc1` (centres undefined), the IC50 was 50 to 500 nM.

The molecule `CC(C)(C(=O)N1CCCC1C(N)c1ccc(C(=O)Nc2ccncc2)cc1)c1ccc(Cl)c(Cl)c1` (centres undefined) yielded an IC50 of 500 to 5000 nM.

For the molecule `NC(c1ccc(C(=O)Nc2ccncc2)cc1)C1CCCN1C(=O)C1(c2ccc(Cl)cc2Cl)CC1` (centres undefined), the IC50 was in the range of 500 to 5000 nM.

In turn, `NC(CC(=O)NC1CCCc2ccccc21)c1ccc(C(=O)Nc2ccncc2)cc1` (centres undefined) gave an IC50 of 50 to 500 nM.

Molecule `CN(C)CCNC(=O)CC(N)c1ccc(C(=O)Nc2ccncc2)cc1` (centres undefined) displayed an IC50 of 50 to 500 nM.

The molecule `CC(CNC(=O)CC(N)c1ccc(C(=O)Nc2ccncc2)cc1)c1ccccc1` (centres undefined) showed an IC50 of 50 to 500 nM.

`N[C@@H](CC(=O)N[C@@H]1CCCc2ccccc21)c1ccc(C(=O)Nc2ccncc2)cc1` registered an IC50 of 50 to 500 nM.

In turn, `Cc1cc(Cl)ccc1NC(=O)NCC(N)c1ccc(C(=O)Nc2ccncc2)cc1` (centres undefined) came in with an IC50 of 50 to 500 nM.

`CC(C)(C(=O)NC[C@H](N)c1ccc(C(=O)Nc2ccncc2)cc1)c1ccc(Cl)cc1` yielded an IC50 of 500 to 5000 nM.

As to `CC(C)(C)c1ccc(NC(=S)NCC(N)c2ccc(C(=O)Nc3ccncc3)cc2)cc1` (centres undefined), the IC50 is 500 to 5000 nM.

As to `COc1cccc(OC)c1CNC(=O)CC(N)c1ccc(C(=O)Nc2ccncc2)cc1` (centres undefined), the IC50 lay in the range of 50 to 500 nM.

For `CC(C)(C(=S)NCC(N)c1ccc(C(=O)Nc2ccncc2)cc1)c1ccc(F)cc1` (centres undefined), the IC50 was 50 to 500 nM.

In the case of `NC(CNC(=O)COc1ccc(F)cc1)c1ccc(C(=O)Nc2ccncc2)cc1` (centres undefined), the IC50 lay in the range of 50 to 500 nM.

In turn, `NC(CNC(=O)C1CCOC1)c1ccc(C(=O)Nc2ccncc2)cc1` (centres undefined) showed an IC50 of 500 to 5000 nM.

Consider `Cc1ccc(CC(=O)N2CCCC2C(N)c2ccc(C(=O)Nc3ccncc3)cc2)cc1` (centres undefined), for which the IC50 lay within 500 to 5000 nM.

The molecule `NC(CNC(=O)c1ccc(F)cc1)c1ccc(C(=O)Nc2ccncc2)cc1` (centres undefined) displayed an IC50 of 500 to 5000 nM.

Molecule `N#CCCN(C(=O)CC(N)c1ccc(C(=O)Nc2ccncc2)cc1)C1CC1` (centres undefined) came in with an IC50 of 500 to 5000 nM.

Turning to `CC1CCC(NC(=O)CC(N)c2ccc(C(=O)Nc3ccncc3)cc2)CC1` (centres undefined), the IC50 was 50 to 500 nM.

Molecule `N[C@H](CC(=O)NCc1ccc(F)cc1)c1ccc(C(=O)Nc2ccncc2)cc1` had an IC50 of 50 to 500 nM.

In turn, `NC(CC(=O)NCCc1ccc(F)cc1)c1ccc(C(=O)Nc2ccncc2)cc1` (centres undefined) showed an IC50 of 50 to 500 nM.

On to `NC(CNC(=O)NC1CCCC1)c1ccc(C(=O)Nc2ccncc2)cc1` (centres undefined), for which the IC50 lay within 500 to 5000 nM.

`NC(c1ccc(C(=O)Nc2ccncc2)cc1)C1CCCN1C(=O)C1(c2ccc(F)c(Cl)c2)CC1` (centres undefined) returned an IC50 of 500 to 5000 nM.

The molecule `NC(CC(=O)N[C@H]1CCc2ccccc21)c1ccc(C(=O)Nc2ccncc2)cc1` (some centres undefined) showed an IC50 of 50 to 500 nM.

In the case of `NC(CC(=O)NCc1ccccc1)c1ccc(C(=O)Nc2ccncc2)cc1` (centres undefined), the IC50 is 50 to 500 nM.

For the molecule `CONC(=O)CC(N)c1ccc(C(=O)Nc2ccncc2)cc1` (centres undefined), the IC50 lay in the range of 50 to 500 nM.

As to `CN(CC(N)c1ccc(C(=O)Nc2ccncc2)cc1)C(=O)Cc1ccc(F)c(F)c1` (centres undefined), the IC50 is 500 to 5000 nM.

For `CC(C)(C(=O)NCC(N)c1ccc(C(=O)Nc2ccncc2)cc1)c1cccs1` (centres undefined), the IC50 fell in the range of 50 to 500 nM.

Molecule `CC(C)(C(=O)N1CCCC1C(N)c1ccc(C(=O)Nc2ccncc2)cc1)c1cccs1` (centres undefined) had an IC50 of 500 to 5000 nM.

On to `COc1cccc2cc(C(=O)NCC(N)c3ccc(C(=O)Nc4ccncc4)cc3)oc12` (centres undefined), for which the IC50 was in the range of 50 to 500 nM.

Regarding `COc1ccc(C2(C(=O)N3CCCC3C(N)c3ccc(C(=O)Nc4ccncc4)cc3)CCCC2)cc1` (centres undefined), the IC50 was 500 to 5000 nM.

For the molecule `NC(CC(=O)NCc1ccc(Cl)cc1Cl)c1ccc(C(=O)Nc2ccncc2)cc1` (centres undefined), the IC50 lay in the range of 50 to 500 nM.

Take `NC(CNC(=O)CCc1cccnc1)c1ccc(C(=O)Nc2ccncc2)cc1` (centres undefined): the IC50 was 500 to 5000 nM.

In the case of `CS(=O)(=O)c1ccc(CNC(=O)CC(N)c2ccc(C(=O)Nc3ccncc3)cc2)cc1` (centres undefined), the IC50 lay in the range of 50 to 500 nM.

The molecule `CN(CC(N)c1ccc(C(=O)Nc2ccncc2)cc1)C(=O)C(C)(C)c1ccc(F)c(Cl)c1` (centres undefined) came in with a 50% inhibitory concentration (IC50) of 500 to 5000 nM.

On to `CCOc1ccccc1CNC(=O)CC(N)c1ccc(C(=O)Nc2ccncc2)cc1` (centres undefined), for which the 50% inhibitory concentration (IC50) was 50 to 500 nM.

In the case of `NC(CC(=O)NCCc1c[nH]c2ccccc12)c1ccc(C(=O)Nc2ccncc2)cc1` (centres undefined), the IC50 lay in the range of 50 to 500 nM.

With `COc1ccc(CC(=O)N2CCCC2C(N)c2ccc(C(=O)Nc3ccncc3)cc2)cc1F` (centres undefined), the IC50 is 500 to 5000 nM.

`CN(CC(N)c1ccc(C(=O)Nc2ccncc2)cc1)C(=O)Cc1ccc2c(c1)OCO2` (centres undefined) returned an IC50 of 500 to 5000 nM.

As to `COc1ccc(CC(=O)N(C)CC(N)c2ccc(C(=O)Nc3ccncc3)cc2)cc1` (centres undefined), the half-inhibitory concentration (IC50) was in the range of 50 to 500 nM.

In the case of `NC(CNC(=O)C1(c2ccc(Cl)c(Cl)c2)CCC1)c1ccc(C(=O)Nc2ccncc2)cc1` (centres undefined), the IC50 lay in the range of 50 to 500 nM.

In turn, `NC(CNC(=O)c1ccccn1)c1ccc(C(=O)Nc2ccncc2)cc1` (centres undefined) had an IC50 of 500 to 5000 nM.

On to `CC(C)C(C(=O)N1CCCC1C(N)c1ccc(C(=O)Nc2ccncc2)cc1)c1ccc(Cl)cc1` (centres undefined), for which the IC50 is 500 to 5000 nM.

`CC(=O)Nc1ccc(C(=O)NCC(N)c2ccc(C(=O)Nc3ccncc3)cc2)cc1` (centres undefined) gave an IC50 of 500 to 5000 nM.

As for `CN(CC(N)c1ccc(C(=O)Nc2ccncc2)cc1)C(=O)C(C)(C)c1cccs1` (centres undefined), the IC50 is 500 to 5000 nM.

`COc1ccc(C2(C(=O)N(C)CC(N)c3ccc(C(=O)Nc4ccncc4)cc3)CC2)cc1` (centres undefined) showed an IC50 of 500 to 5000 nM.

`NC(CNC(=O)CC(c1ccccc1)c1ccccc1)c1ccc(C(=O)Nc2ccncc2)cc1` (centres undefined) gave an IC50 of 50 to 500 nM.

With `NC(CNC(=O)Cc1ccncc1)c1ccc(C(=O)Nc2ccncc2)cc1` (centres undefined), the IC50 is 500 to 5000 nM.

In the case of `Cc1ccccc1CC(=O)NCC(N)c1ccc(C(=O)Nc2ccncc2)cc1` (centres undefined), the IC50 was in the range of 50 to 500 nM.

Take `CN(CC(N)c1ccc(C(=O)Nc2ccncc2)cc1)C(=O)Cc1ccc2ccccc2c1` (centres undefined): the IC50 was 50 to 500 nM.

In turn, `CN(CC(N)c1ccc(C(=O)Nc2ccncc2)cc1)C(=O)Cc1ccc(F)cc1` (centres undefined) displayed an IC50 of 500 to 5000 nM.

As for `CN(CC(N)c1ccc(C(=O)Nc2ccncc2)cc1)C(=O)Cc1csc2ccccc12` (centres undefined), the IC50 fell in the range of 500 to 5000 nM.

As to `NC(c1ccc(C(=O)Nc2ccncc2)cc1)C1CCCN1C(=O)Cc1ccc(Cl)cc1` (centres undefined), the concentration for half-maximal inhibition (IC50) was 500 to 5000 nM.

On to `NC(CC(=O)NCc1ccccc1Br)c1ccc(C(=O)Nc2ccncc2)cc1` (centres undefined), for which the IC50 is 50 to 500 nM.

With `COc1cc(CCNC(=O)CC(N)c2ccc(C(=O)Nc3ccncc3)cc2)cc(OC)c1` (centres undefined), the IC50 was 50 to 500 nM.

In turn, `NC(c1ccc(C(=O)Nc2ccncc2)cc1)C1CCCN1C(=O)C1(c2ccc(Cl)cc2)CCCC1` (centres undefined) displayed an IC50 of 500 to 5000 nM.

In the case of `NC(CC(=O)NCc1cc(Cl)ccc1Cl)c1ccc(C(=O)Nc2ccncc2)cc1` (centres undefined), the IC50 fell in the range of 50 to 500 nM.

`CN(CC(N)c1ccc(C(=O)Nc2ccncc2)cc1)C(=O)C1(c2ccc(Cl)cc2)CCC1` (centres undefined): the IC50 is 500 to 5000 nM.

Consider `NC(CNC(=O)c1cc2cc(F)ccc2[nH]1)c1ccc(C(=O)Nc2ccncc2)cc1` (centres undefined), for which the concentration for half-maximal inhibition (IC50) is 500 to 5000 nM.

In turn, `CN(CC(N)c1ccc(C(=O)Nc2ccncc2)cc1)C(=O)Cc1ccccc1` (centres undefined) registered an IC50 of 500 to 5000 nM.

Regarding `CCNS(=O)(=O)c1cccc(C(=O)NCC(N)c2ccc(C(=O)Nc3ccncc3)cc2)c1` (centres undefined), the IC50 was 500 to 5000 nM.

`NC(CNC(=O)c1ccccc1Nc1ccccc1)c1ccc(C(=O)Nc2ccncc2)cc1` (centres undefined): the IC50 fell in the range of 500 to 5000 nM.

Turning to `NC(CNC(=O)c1cccc(Oc2ccccc2)c1)c1ccc(C(=O)Nc2ccncc2)cc1` (centres undefined), the IC50 was in the range of 500 to 5000 nM.
